Measured values: patent US20060013897A1, “Compositions for cancer therapy saponins or sapogenins” (priority 2002, published 2006)

What was measured:
Type in all cases: cell-based
[1] = tested on: human breast cancer cells (MCF7); experiment: MTT cytotoxicity assay, MCF7 cells; conditions: 15 μg/mL (individual components at similar concentrations), MTT at 24 hours
Source text: (§1) Preparation of Compositions: A process of preparing a composition comprising of Rh2, aPPD, and aPPT saponins and/or sapogenins from plants selected from the group consisting of panax ginseng, panax quinguefol and panax notoginseng, or a sapogenin source from some other plant, and proceeding according to the following steps: • (a) mixing the ginsenoside extract with water; • (b) (i) mixing the ginsenoside extract and water with a short-chain (1-5 carbon) alkali-metal alcoholate solution or a hydroxide-ethanol solution to produce a mixture; and • (ii) placing the resultant mixture in a reaction tank so that the resultant mixture can undergo chemical reactions at a temperature between 240 and 300° C. and at a pressure between 3.5 and 8.4 MPa; or • (c) (i) alternatively, mixing the ginsenosides extract with ethanol; • (ii) mixing the extract and ethanol with alkali-metal alcoholates solution to produce a mixture, and • (iii) placing the resultant mixture in a reaction tank so that the resultant mixture can undergo chemical reactions at a temperature between 240 and 300° C. and at a pressure between 3.5 and 8.4 MPa; and • (d) after the reaction is completed, collecting an intermediate product of a mix of saponins and/or sapogenins from the ethanol mixture. Cytotoxicity was measured using a standard microculture tetrazolium assay (MTT) (Alley, M C et al, Cancer Research 48:589-601, 1988). Exponentially growing cultures of tumor cells, including multi-drug resistant cell lines, were used to make microtiter plate cultures. Cells were seeded at 1.2×10^3 cells per well in 96-well plates, and grown overnight at 37° C. Test compounds were then added. Cells were treated for 24 hours. To determine the number of viable cells in each well, the MTT dye was added (3-(4,5-dimethylthiazol-2-yl)-2,5-diphenyltetrazolium bromide in saline) in accordance with the standard practice known in the art.
Cultured human breast cancer cells (MCF7) were treated with the saponins and sapogenins Rh2, aPPT, and aPPD, individually, at various concentrations. […]

[2] = tested on: mouse melanoma cells (B16); experiment: MTT cytotoxicity assay, B16 cells; conditions: 10 μg/mL (individual components at similar concentrations), MTT at 24 hours
Source text: as §1
Cultured mouse melanoma cells (B16) were treated with the saponins and sapogenins Rh2, aPPT, and aPPD, individually, at various concentrations. […]

[3] = tested on: human glioma tumor cells (U87); experiment: MTT cytotoxicity assay, U87 cells; conditions: 15 μg/mL (individual components at similar concentrations), MTT at 24 hours
Source text: as §1
Cultured human glioma tumor cells (U87) were treated with the saponins and sapogenins Rh2, aPPT, and aPPD, individually, at various concentrations. […]

SMILES	cancer cells killed [1] [%]	cancer cells killed [2] [%]	cancer cells killed [3] [%]
CC(C)=CCC[C@](C)(O)[C@H]1CC[C@]2(C)[C@@H]1[C@H](O)C[C@@H]1[C@@]3(C)CC[C@H](O[C@@H]4O[C@H](CO)[C@@H](O)[C@H](O)[C@H]4O)C(C)(C)[C@@H]3CC[C@]12C [Rh2, 3-O-β-D-glucopyranosyl-20(s)-protopanaxadiol]	68	56	64
CC(C)=CCC[C@@](C)(O)[C@H]1CC[C@]2(C)[C@@H]1[C@H](O)C[C@@H]1[C@@]3(C)CC[C@H](O)C(C)(C)[C@@H]3CC[C@]12C [aPPD, aglycon protopanaxadiol]	69	44	52
CC(C)=CCC[C@](C)(O)[C@H]1CC[C@]2(C)[C@@H]1[C@H](O)C[C@@H]1[C@@]3(C)CC[C@H](O)C(C)(C)[C@@H]3[C@@H](O)C[C@]12C [aPPT, aglycon protopanaxatriol]	68	47	29
